Test results taken from patent US20100184113A1, “CONTROLLING OSTEOGENESIS BY INHIBITION OF OSTEOGENIC SUPPRESSORS” (The Scripps Research Institute Office of Patent Counsel, priority 2006, published 2010).

Key:
Assay type in all cases: cell-based, human
hMSCs [1] = experiment: Alkaline phosphatase (ALP) activity staining of hMSCs after siRNA transfection
Experimental: The human mesenchymal stem cells (hMSCs, PT-2501) were purchased from Cambrex Inc. and cultured as instructed by the supplier. Cells were expanded to passage 5 before being used for siRNA library screen. Briefly, diluted Xtreme-siRNA transfection reagent (cat# 476 115 00, Roche) (0.12 μl Xtreme in 14 μl DMEM) was mixed with pre-spotted siRNA (14 ng/well) in each well of 384-well plates for one hour. Cells (4000/well) in 60 μl media (no antibiotics) were then added using automated dispenser (Multidrop 384, Thermo LabSystems) (siRNA final concentration at around 15 nM). Transfection was allowed to continue for 8 hours before first media renewal. After 7 days of culture, cells were stained for alkaline phosphatase (ALP) activity (cat# 86R-1 KT, Sigma). Post-screen assays were done in 96-well plates and siRNA was transfected at the concentration of 30 nM at the cell density of 8000 cells/well. CRE decoy oligonucleotide and control oligonucleotide (phosphorothioate bond modification on all nucleotides) (Park, Y. G. et al., J Biol Chem 274:1573-1580 (1999)) were transfected into cells similarly as siRNA using Xtreme-siRNA transfection reagent, except that the final DNA concentration was 90 nM. […]

hMSCs [2] = experiment: Alizarin red staining for calcium phosphate deposits (ECM mineralization, bone cell maturation); details: OS treatment started three days after siRNA transfection and continued for 9 days (3+9OS), vs siCon
PLZF = experiment: RT-PCR of PLZF; details: samples collected day 7 or day 12 after siRNA transfection
Experimental: Total RNA from each sample was prepared from around 5×10(4) cells using RNAeasy mini kit from Qiagen and further treated with Turbo DNA-Free (cat# 1907, Ambion) to prevent DNA contamination. Reverse transcription was carried out using SuperScript First-Strand Synthesis System for RT-PCR (cat# 11904-018, Invitrogen) or Qiagen OneStep RT-PCR kit (cat# 210210) as instructed. PCR primers used were as follows: […]
To test their roles in our siRNA induced osteogenic differentiation, RT-PCR was performed on these genes. […] In addition, MAPK signaling pathways have been shown activated in the OS treated hMSCs, and inhibition of these pathways suppresses OS induced osteogenesis (FIG. 9b) (Jaiswal, R. K. et al., J Biol Chem 275:9645-9652 (2000)).

p38 = experiment: Western blot of phosphorylated p38; details: 72 hours after transfection
Experimental: Cell lyses buffer contains 20 mM Tris pH8.0, 1 mM EDTA, 150 mM NaCl and 0.5% NP-40, and before usage, protease inhibitor cocktail (Cat# p8340, Sigma, 1:100 dilution) and phosphatase inhibitor cocktail 2 (Cat# p5726, sigma, 1:100 dilution) were added. Proteins (60 μg/well) were separated in 12% Novex Tris-Glycine gel (Cat# EC6008 box, Invitrogen) and transferred to Nitrocellulose membrane (Cat# LC2001, Invitrogen) using the XCell II blot module system (Cat# E19051, Invitrogen). The membrane was blocked in 5% milk/PBST for 1 hour at room temperature, incubated over night at 4 degree with primary antibody, washed 3 times with PBST (0.05% Tween 20 in PBS), followed by one hour incubation with secondary antibody in 5% milk/PBST and 3 times wash with PBST at room temperature. For antibody against pCREB however, PBST was substituted with PBS in all steps except for the last one. Antibody-bound proteins were detected utilizing ECL Western blotting detection reagent (Amersham Biosciences).
Anti-phospho-CREB was purchased from Upstate Biotechnology (cat# 06-519); Anti-phospho-p38 was purchased from Cell signaling technology (cat# 9910).
We therefore examined the activation status of ERK1/2 and p38 in the siDUSP6 treated hMSCs along with other siRNA treated samples by western blot using antibodies against the phosphorylated form of the protein at 72 hours after transfection (FIG. 9c).

hMSCs [3] = experiment: Adipogenic differentiation of hMSCs, Oil Red O staining; details: Adipo from third day after siRNA transfection, continued 12 days, Oil Red O
Experimental: Cells were rinsed with PBS twice, fixed in 10% formalin solution for 20 minutes, rinsed with PBS twice and dH2O once, washed with propylene glycol for 5 minutes, and stained with Oil red in propylene glycol (12722A, Newcomer Supply) for 30 minutes. Cells were then washed with 85% propylene glycol for 5 minutes, rinsed with dH2O 3 times and preserved in 50% glycerol.
8-CPT-cAMP, Na (cat# 116812), 5-Iodotubercidin (cat# 407900), Prostaglandin E2 (PGE2, cat# 538904), SB 202190 (cat# 559388) and U0126 (cat# 662005) were purchased from Calbiochem; N6,2′-O-Dibutyryl-cAMP (cat# D0260-5MG), forskolin (cat# F6886), ascorbic acid 2-phosphate (cat# 49752-10G), (3-glycerophosphate (G-6251), dexamethasone (D8893), 3-isobutyl-1-methylxanthine (IBMX, 15879) and Insulin (19278) were purchased from Sigma/Aldrich/Fluka.
Bone cell maturation is accompanied by extracellular matrix (ECM) mineralization (John Bilezikian et al., Principles of bone biology, Vol 1, 2nd edn: Academic Press) (2002)). To examine whether the osteogenic differentiation of hMSCs induced by the hit siRNAs can further proceed to the maturation stage, hit siRNA treated cells were cultured for 20 days. […] These observations are consistent with the conclusion that the targeted genes of the ten effective hit siRNAs not only play inhibitory roles in osteogenic specification of hMSCs, but also in bone cell maturation. […] Furthermore, in osteoporotic patients, the number of adipocytes was increased in the marrow, implying a change of cell fate disposition from osteoblast lineage to adipocyte lineage (Justesen, J. et al., Biogerontology 2:165-171 (2001); Meunier, P. et al., Clin Orthop Relat Res 80:147-154 (1971)). We therefore examined the effect of our hit siRNAs on adipogenic differentiation of hMSCs by combined treatment with an adipogenic inducing cocktail (100 μg/ml BMX, 1 μM DEX and 10 μg/ml insulin).
Since the targeted genes are all positively involved in intracellular cAMP signaling, we tested the effect of two compounds of opposing function on cAMP production on osteogenic differentiation of hMSCs, ADK inhibitor 5-iodotubercidin and ADCY activator forskolin (Cottam, H. B. et al., J Med Chem 36:3424-3430 (1993); de Souza, N. J. et al., Med Res Rev 3:201-219 (1983)). […] ATP has been shown as a ligand for P2RY11 receptor (Communi et al., 1997). […] The present observations are consistent with the conclusion that […] in hMSCs, and vice versa.

For “CBFA1 siRNA: CBFA1-specific siRNA, antisense UAGUAGAGAUAUGGAGUGCtg, sense GCACUCCAUAUCUCUACUAtt (chain 1 UAGUAGAGAUAUGGAGUGCTG; chain 2 GCACUCCAUAUCUCUACUATT; chemistry not given here) [reference compound]”, the “ALP activity induced by hit siRNAs or OS on co-treatment” value (hMSCs [1]; co-transfected with each hit siRNA, vs co-treatment with siCon) was “reduced the level of ALP activity”.

In the case of “siMJD: siRNA CAGAUGCAUCGACCAAAAC targeting Machado-Joseph disease (ataxin 3) (listed as RNA, chemistry not given here)”, the “intensity of alizarin red staining” value (hMSCs [2]) was “no significant effect” and the “expression of PLZF” value (PLZF) was “detected”.

With “siDUSP6: siRNA CUGUGGUGUCUUGGUACAU targeting dual specificity phosphatase 6 (listed as RNA, chemistry not given here)” the “level of active (phosphorylated) p38” value (p38) was “increased level of active p38” and the “intensity of alizarin red staining” value (hMSCs [2]) was “modest enhancement”.

“siCOMP: siRNA CGGUCACGGAUGACGACUA targeting cartilage oligomeric matrix protein (listed as RNA, further chemistry not given here)” was tested, and the “osteogenic differentiation (ALP activity)” value (hMSCs [1]; 9 days after siRNA transfection) was “induces osteogenic differentiation of hMSCs” and the “adipogenesis induced by adipogenic inducing media (Adipo)” value (hMSCs [3]) was “enhances adipogenesis”.
